Assay results published in ChEMBL document CHEMBL3301361, “Experimental in vitro DMPK and physicochemical data on a set of publicly disclosed compounds”.
Values after ≈ are worked out from the molar mass of the structure shown.

Columns and labels:
in vitro [1] = details: human, plasma
in vitro [2] = details: SD, HW or BN, rat, plasma
in vitro [3] = details: mouse, plasma
in vitro [4] = details: human, hepatocytes
physchem [5] = details: octan-1-ol/water
physchem [6] = details: pH 7.4 buffer
in vitro [7] = details: hepatocytes
in vitro [8] = details: human

Row | fraction unbound at 5 h (in vitro [2]) | fraction unbound at 5 h (in vitro [3]) | fraction unbound at 5 h (in vitro [1]; PPB) | SMILES | other results
1 | 0.0106 | 0.0111 | 0.0074 | CC(C)[C@H](C(=O)Nc1nccs1)c1ccc(Cl)cc1 | hepatocyte CLint (in vitro [4]): 12 µL/min/1e6 cells
2 | 0.0594 | 0.0661 | 0.0909 | CC(O)(C(=O)Nc1cccc(S(=O)(=O)c2ccccc2)c1)C(F)(F)F (stereo not drawn) | 
3 | 0.19 | 0.262 | 0.232 | C[C@@H]1CN(C(=O)[C@@H]2CN(C(C)(C)C)C[C@H]2c2ccc(F)cc2F)C[C@H](C)[C@@]1(O)c1ccccc1 [PF-00446687] | hepatocyte CLint (in vitro [4]): 25.1 µL/min/1e6 cells
4 | 0.792 | 0.858 | 0.803 | CC(C)[C@H](O)C(=O)N[C@@H](C)C(=O)N[C@@H]1C(=O)N(C)CCc2ccccc21 | 
5 | 0.0313 | 0.0313 | 0.0358 | O=C1CCc2cc(-c3cncc4ccccc34)ccc2N1 | 
6 | 0.179 | 0.0075 |  | CC(C)Cn1cnc2c(N)nc3ccccc3c21 [IMIQUIMOD] | logD (physchem [5]; pH 7.4, LogD7.4): 2.52; solubility thermodynamic (physchem [6]): 63.1 µM (≈ 15.2 µg/mL)
7 | 0.0119 | 0.0139 | 0.0149 | CCOc1cc(CN2CCC(NC(=O)c3cncc(C)c3)CC2)cc(OCC)c1-c1ccc(F)cc1 | 
8 | 0.0007 | 0.0007 | 0.0752 | CCOc1ncc(C)c2c1[C@H](c1ccc(C#N)cc1OC)C(C(N)=O)=C(C)N2 [FINERENONE] | logD (physchem [5]; pH 7.4, LogD7.4): 2.51; hepatocyte CLint (in vitro [7]): 26.9 µL/min/1e6 cells; microsomal CLint (in vitro [8]; microsomes): 97.7 µL/min/mg
9 | 0.0836 | 0.0736 | 0.0209 | Cc1ncsc1C(=O)N(Cc1cc(=O)[nH]c2c(F)cccc12)c1cccc(Cl)c1 | 
10 | 0.0801 | 0.0033 | 0.0009 | O=C(Nc1ccc(CN2CCNCC2)cc1-c1nc2ccccc2[nH]1)c1cnc2ccccc2n1 | 
11 | 0.0428 | 0.0661 | 0.0262 | c1ccc2c(c1)CC(N1CCN(c3cccc4c3OCCO4)CC1)C2 | 
12 | 0.0017 | 0.0039 |  | Cn1cc(-c2ccncc2)c(-c2ccc(OCc3ccc4ccccc4n3)cc2)n1 [MARDEPODECT] | 
13 | 0.201 | 0.19 | 0.16 | c1ccc2[nH]c(CCc3nc4ccccc4[nH]3)nc2c1 | logD (physchem [5]; pH 7.4, LogD7.4): 3.3
14 | 0.0099 | 0.0081 |  | COc1ccc(C2(c3ccc(F)c(-c4cccnc4F)c3)N=C(N)N(C)C2=O)cc1C (stereo not drawn) | 
15 |  | 0.0063 |  | N#Cc1c(O)c2c(-c3ccc(-c4ccccc4O)cc3)csc2[nH]c1=O | hepatocyte CLint (in vitro [7]): 52.5 µL/min/1e6 cells; microsomal CLint (in vitro [8]; liver microsomes): < 3 µL/min/mg
16 | 0.0061 | 0.0059 | 0.0055 | CS(=O)(=O)Nc1ccc2[nH]c(Cc3ccc(Oc4ccccc4)cc3)nc2c1 | 
17 | 0.0171 | 0.03 | 0.0268 | CC1=C(C(=O)OCc2ccccc2)C(c2cccs2)NC(=O)N1 (stereo not drawn) | 
18 | 0.101 | 0.179 | 0.004 | O=C1N(c2ccccc2)c2ccccc2C1(Cc1ccncc1)Cc1ccncc1 [LINOPIRDINE] | 

Second part, the molecule before the results:

Row | SMILES | fraction unbound at 5 h (in vitro [2]) | fraction unbound at 5 h (in vitro [3]) | fraction unbound at 5 h (in vitro [1]; PPB) | other results
19 | O=C1Nc2cc(C(F)(F)F)ccc2C1(O)c1cc(Cl)ccc1O (stereo not drawn) | 0.0111 | 0.0219 |  | fraction unbound at 5 h (in vitro [1]): 0.0149
20 | COc1ccc2cc(S(=O)(=O)N[C@H](CC(=O)N[C@H](Cc3ccc(CN4[C@H](C)CCC[C@@H]4C)cc3)C(=O)N(C)C(C)C)c3ccc4c(c3)OCO4)ccc2c1 | 0.0447 | 0.04 | 0.04 | 
21 | Cc1cccc(-c2ccc(CNC(=O)CCCc3ccc4cccnc4n3)cc2)c1 |  | 0.0022 |  | hepatocyte CLint (in vitro [4]): 60.3 µL/min/1e6 cells
22 | COc1ccc(S(=O)(=O)N2CC(C)N(S(=O)(=O)c3ccc(OC)cc3)CC2C)cc1 (stereo not drawn) | 0.0139 | 0.0179 |  | fraction unbound at 5 h (in vitro [1]): 0.0035
23 | Cc1nccc(-c2ccc(-c3nc4ccncc4c(O)c3C#N)cc2)c1Cl | 0.0014 | 0.0088 | 0.0014 | logD (physchem [5]; pH 7.4, LogD7.4): 2
24 | N[C@@H](CC(=O)N1CCn2c(nnc2C(F)(F)F)C1)Cc1cc(F)c(F)cc1F [SITAGLIPTIN] | 0.78 | 0.711 | 0.768 | logD (physchem [5]; pH 7.4, LogD7.4): 0.31
25 | CCc1c(C(=O)C(N)=O)c2c(OCC(=O)OC)cccc2n1Cc1ccccc1 [VARESPLADIB METHYL] |  | 0.232 |  | hepatocyte CLint (in vitro [4]): 50.1 µL/min/1e6 cells
26 | CO[C@H]1CC[C@]2(CC1)Cc1ccc(OCC(C)C)cc1C21N=C(C)C(N)=N1 (stereo partly drawn) |  | 0.349 | 0.201 | logD (physchem [5]; pH 7.4, LogD7.4): 3.4; hepatocyte CLint (in vitro [4]): 7.24 µL/min/1e6 cells
27 | CC(C)Cc1c(C(=O)C(N)=O)c2c(OCC(=O)O)cccc2n1Cc1ccccc1 | 0.0187 | 0.0366 |  | fraction unbound at 5 h (in vitro [1]): 0.0313
28 | COc1ccc(Cl)cc1C1(F)C(=O)Nc2cc(C(F)(F)F)ccc21 (stereo not drawn) | 0.0015 | 0.0019 | 0.0017 | 
29 | Cc1cc(C)c(S(=O)(=O)NCc2ccncc2)c(C)c1 | 0.139 | 0.151 | 0.139 | 
30 | CS(=O)(=O)N1CCC(NC(=O)NC23CC4CC(CC(C4)C2)C3)CC1 | 0.262 | 0.17 | 0.289 | logD (physchem [5]; pH 7.4, LogD7.4): 2.7
31 | CO[C@H]1CC[C@]2(CC1)Cc1ccc(-c3cncc(Br)c3)cc1C21N=C(C)C(N)=N1 (stereo partly drawn) | 0.0661 | 0.0209 | 0.139 | logD (physchem [5]; pH 7.4, LogD7.4): 3.4
32 | CN(C)CCC1CCN(c2cc(C(=O)NC[C@H]3CC[C@H](CNC(=O)OCC(C)(C)C)CC3)c3ccccc3n2)CC1 | 0.0133 | 0.0039 | 0.0139 | 
33 | c1cncc(Nc2ncc(-c3ccncn3)c(-c3ccco3)n2)c1 | 0.139 | 0.16 | 0.139 | 
34 | Cc1ncccc1Oc1ncnc(OC2CCN(C(=O)OC(C)C)CC2)c1C | 0.0313 | 0.0149 | 0.0079 | logD (physchem [5]; pH 7.4, LogD7.4): 3.8
35 | Cc1cnc(C(=O)c2ncnc3[nH]ccc23)c(NS(=O)(=O)c2ccc(Cl)c(C(F)(F)F)c2)c1 [ILACIRNON] | 0.0021 | 0.0069 | 0.0009 | 

Row | SMILES | fraction unbound at 5 h (in vitro [2]) | fraction unbound at 5 h (in vitro [3]) | fraction unbound at 5 h (in vitro [1]; PPB) | other results
36 | FC(F)(F)Oc1ccc(-c2nnc(CCCCc3ccc4cccnc4n3)o2)cc1Cl |  | 0.0043 | 0.0008 | hepatocyte CLint (in vitro [4]): 24.6 µL/min/1e6 cells
37 | O=c1[nH]c2cc(C(F)(F)F)ccc2n1-c1cc(C(F)(F)F)ccc1O | 0.0011 | 0.0021 |  | 
38 | CC(C)NC[C@@H](O)COc1cccc2ccccc12 [DEXPROPRANOLOL] | 0.179 | 0.179 |  | fraction unbound at 5 h (in vitro [1]): 0.176
39 | CCCN(c1cccc(C#N)c1)P(=O)(c1ccccc1)c1ccccc1 | 0.0633 | 0.0467 |  | fraction unbound at 5 h (in vitro [1]): 0.0056
40 | Cc1cc(N2CCC[C@@H]2C(=O)NCCc2ccc3c(c2)OCO3)nc(-n2ccnc2)n1 | 0.22 | 0.154 | 0.19 | logD (physchem [5]; pH 7.4, LogD7.4): 2.5; microsomal CLint (in vitro [8]; liver microsomes): > 150 µL/min/mg
41 | CC(O)(C(=O)Nc1ccc(S(=O)(=O)N2CCCC2)cc1)C(F)(F)F (stereo not drawn) | 0.119 | 0.0818 | 0.22 | 
42 | O=C(Nc1ccc(N2CCNCC2)cc1)c1ccc(-c2ccc(Cl)cc2)o1 | 0.0055 | 0.03 | 0.0268 | logD (physchem [5]; pH 7.4, LogD7.4): 2.4; hepatocyte CLint (in vitro [4]): < 3 µL/min/1e6 cells
43 | CC1(CCCc2cc(=O)oc3[nH]c(=O)[nH]c(=O)c23)CC1 [SCH-900271] | 0.0149 | 0.0268 | 0.0149 | hepatocyte CLint (in vitro [7]): 42.7 µL/min/1e6 cells; hepatocyte CLint (in vitro [4]): < 3 µL/min/1e6 cells; microsomal CLint (in vitro [8]; liver microsomes): < 3 µL/min/mg
44 | CCOc1cc(CN2CCC(Nc3nc4cc(S(N)(=O)=O)ccc4o3)CC2)cc(OCC)c1N | 0.11 | 0.0928 | 0.299 | 
45 | Cc1ccccc1-n1c(Cn2cnc3c(N)ncnc32)nc2cccc(C)c2c1=O | 0.24 | 0.0801 |  | logD (physchem [5]; pH 7.4): 2.6; hepatocyte CLint (in vitro [7]): 24 µL/min/1e6 cells; fraction unbound at 5 h (in vitro [1]): 0.0136
46 | c1ccc([C@@H]([C@H](c2ccccc2)N2CCCCC2)N2CCCCC2)cc1 | 0.319 | 0.262 | 0.0988 | 
47 | CC(C)(C)OC(=O)NC[C@H]1CC[C@H](CNC(=O)c2cc(N3CCC(CCN4CC(O)C4)CC3)nc3ccccc23)CC1 | 0.0328 | 0.0139 | 0.03 | 
48 | C1Cc2[nH]nc(-c3nnn[nH]3)c2C1 | 0.072 | 0.371 |  | 
49 | O=C1COc2nccc(-c3ccccc3F)c2CN1Cc1cc(C(F)(F)F)cc(C(F)(F)F)c1 | 0.0081 | 0.0095 | 0.0063 | 
50 | COC(=O)N[C@@H](C)C#Cc1cnc(Oc2ccc(OC(C)C)cc2)s1 | 0.0051 | 0.0099 | 0.0034 | 
51 | CC(C)(F)C[C@H](N[C@@H](c1ccc(-c2ccc(S(C)(=O)=O)cc2)cc1)C(F)(F)F)C(=O)NC1(C#N)CC1 [ODANACATIB] | 0.0366 | 0.016 | 0.0606 | logD (physchem [5]; pH 7.4, LogD7.4): 2.9
52 | Cc1nccn1-c1sc(Nc2cnccn2)nc1-c1cccc(C#N)c1 | 0.0437 | 0.0335 | 0.0437 | 
